According to BindingDB's records for PubMed 35119267 (University of Toronto Mississauga, 2022):

Target: Histone deacetylase 3 (Homo sapiens, UniProt O15379)
Assay: Inhibition of full length human recombinant HDAC3 expressed in Sf9 baculovirus system using FAM-labeled acetylated peptide as substrate by measuring fluorescence intensity by EMSA method

Sequence of Histone deacetylase 3 (O15379 whole entry): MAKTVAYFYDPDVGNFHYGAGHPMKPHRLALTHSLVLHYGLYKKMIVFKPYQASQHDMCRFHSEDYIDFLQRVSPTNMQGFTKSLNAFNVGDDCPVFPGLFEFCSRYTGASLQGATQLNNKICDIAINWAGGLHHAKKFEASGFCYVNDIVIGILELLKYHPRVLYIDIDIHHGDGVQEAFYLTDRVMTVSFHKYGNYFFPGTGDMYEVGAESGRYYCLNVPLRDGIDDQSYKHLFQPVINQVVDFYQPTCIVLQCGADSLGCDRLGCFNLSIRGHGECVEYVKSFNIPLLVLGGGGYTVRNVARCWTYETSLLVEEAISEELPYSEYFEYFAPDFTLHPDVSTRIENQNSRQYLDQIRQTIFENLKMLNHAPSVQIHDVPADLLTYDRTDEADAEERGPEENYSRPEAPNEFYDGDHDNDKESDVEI

O=C(NO)c1ccc(CN(C2CC2)S(=O)(=O)c2cc(F)c(F)c(F)c2F)cc1
IC50: > 1 µM
